# Values quoted from earlier work in patent US4127536A, “Novel tricosapeptides, intermediates therefor and pharmaceutical compositions and methods employing said tricosapeptides” (priority 1977, dated 1978).
# How the values were obtained:
# [1] = test system: partially purified brain opiate receptor sites; settings: natural peptide
# rat = settings: injected directly into the brain of the rat
substance,measurement,setting,value
H-Tyr-Gly-Gly-Phe-Met-OH [methionine enkephalin],binding to partially purified brain opiate receptor sites,[1],binds stereo-specifically
same,analgesic activity,rat,only weak analgesic agent of short duration
